# Measurements from patent publication US20140135390A1, “Modified Platinum Compounds” (priority 2011, published 2014).
# What was measured:
# [1] = tested on: murine breast cancer cells EMT-6; test: In vitro cell viability of EMT-6 cells after 48 hours incubation, viable cells counted with a hemocytometer; format: cell-based; settings: 1 μM, 50 μM and 100 μM
# Protocol: A murine breast cancer cells EMT-6 (0.5*10^6 cells/plate) were plated and grown in Dulbecco's Modified Eagle Medium (DMEM) supplemented with 10% FBS, 2% L-Glutamine Solution (200 mM), 2% Pen-Strep Solution (Biological Industries), and […] D-Glucose under regular growth conditions: 5% CO2, and 37.6° C.
# After the incubation time, cells were washed with PBS (3 times), harvested using Trypsin-EDTA solution (Biological Industries), and the number of viable cells was counted under microscope using a microscope counting chamber (Hemocytometer).
# treated patients = settings: dose limiting toxicity; cited from earlier work
smiles,measurement,setting,value
"N.N.[Cl][Pt][Cl] [Cisplatin, cis-diamminedichloroplatinum(II)]",toxicity to the cells / effect on cell number (FIG. 1),[1],dose-dependent reduction in the cells
same,"sensory neuropathy, share of treated patients",treated patients,more than 20%
